# Several values for one entry are separate records, joined by “and”; a condition that tells them apart may be missing. Identical values can stand only once. Toxic doses and inconclusive results are not listed.
# Tested on: L1210 leukemia ip in BDF1 mice, survival T/C
# Assay: NCI In Vivo Anticancer Drug Screen. Data for tumor model L1210 Leukemia (intraperitoneal) in B6D2F1 (BDF1) mice
# Settings: endpoint: mean survival time, higher = longer survival
# Summary of the method: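 Ratio derived from survival: compound-dosed mice over vehicle-dosed mice, all bearing a transplantable tumor.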
# [1] = dose: 100.0 mg/kg/injection, schedule: Q04DX002 (ip), vehicle: saline with Tween-80
# [2] = dose: 200.0 mg/kg/injection, schedule: Q04DX002 (ip), vehicle: saline with Tween-80
# [3] = dose: 400.0 mg/kg/injection, schedule: Q04DX002 (ip), vehicle: saline with Tween-80
# [4] = dose: 100.0 mg/kg/injection, schedule: Q01DX001 (ip), vehicle: carboxymethylcellulose (CMC)
# [5] = dose: 200.0 mg/kg/injection, schedule: Q01DX001 (ip), vehicle: carboxymethylcellulose (CMC)
# [6] = dose: 400.0 mg/kg/injection, schedule: Q01DX001 (ip), vehicle: carboxymethylcellulose (CMC)
# [7] = dose: 100.0 mg/kg/injection, schedule: Q04DX003 (ip), vehicle: Klucel (hydroxypropylcellulose) (HPC)
# [8] = dose: 200.0 mg/kg/injection, schedule: Q04DX003 (ip), vehicle: Klucel (hydroxypropylcellulose) (HPC)
# [9] = dose: 400.0 mg/kg/injection, schedule: Q04DX003 (ip), vehicle: Klucel (hydroxypropylcellulose) (HPC)
# [10] = dose: 100.0 mg/kg/injection, schedule: Q04DX003 (ip), vehicle: saline with Tween-80
# [11] = dose: 200.0 mg/kg/injection, schedule: Q04DX003 (ip), vehicle: saline with Tween-80
# [12] = dose: 400.0 mg/kg/injection, schedule: Q04DX003 (ip), vehicle: saline with Tween-80
# [13] = dose: 100.0 mg/kg/injection, schedule: Q01DX001 (ip), vehicle: Klucel (hydroxypropylcellulose) (HPC)
# [14] = dose: 200.0 mg/kg/injection, schedule: Q01DX001 (ip), vehicle: Klucel (hydroxypropylcellulose) (HPC)
# [15] = dose: 400.0 mg/kg/injection, schedule: Q01DX001 (ip), vehicle: Klucel (hydroxypropylcellulose) (HPC)
smiles,measurement,setting,value
COc1cc(C2=N/C(=C\c3cc(Br)cc(Br)c3O)C(=O)O2)cc(OC)c1OC,T/C,"dose: 25.0 mg/kg/injection, schedule: Q04DX002 (ip), vehicle: saline with Tween-80",97 % of control
same,T/C,"dose: 50.0 mg/kg/injection, schedule: Q04DX002 (ip), vehicle: saline with Tween-80",90 % of control
same,T/C,[1],90 % of control
same,T/C,[2],95 % of control
same,T/C,[3],95 % of control
O=c1[nH]nc(-c2ccc3c(c2)Cc2ccccc2-3)c2ccccc12,T/C,[4],100 % of control
same,T/C,[5],94 % of control
same,T/C,[6],97 % of control
O=C(COc1ccc(Cl)cc1Cl)NCCO,T/C,[7],98 % of control
same,T/C,[8],97 % of control
same,T/C,[9],111 % of control
Cc1ccc2c(ccc[n+]2C)c1,T/C,"dose: 75.0 mg/kg/injection, schedule: Q01DX001 (ip), vehicle: saline",103 % of control
same,T/C,"dose: 150.0 mg/kg/injection, schedule: Q01DX001 (ip), vehicle: saline",106 % of control
COCc1c(COc2ccc(Cl)cc2)n(C)c2ccccc12,T/C,"dose: 100.0 mg/kg/injection, schedule: Q04DX002 (ip), vehicle: Klucel (hydroxypropylcellulose) (HPC)",101 % of control
same,T/C,"dose: 200.0 mg/kg/injection, schedule: Q04DX002 (ip), vehicle: Klucel (hydroxypropylcellulose) (HPC)",92 % of control
same,T/C,"dose: 400.0 mg/kg/injection, schedule: Q04DX002 (ip), vehicle: Klucel (hydroxypropylcellulose) (HPC)",99 % of control
C/C(=N\OC(=O)Nc1ccccc1)c1ccccc1,T/C,[4],98 % of control
same,T/C,[6],95 % of control
O=C(O)c1c(Cl)cccc1Cl,T/C,"dose: 25.0 mg/kg/injection, schedule: Q01DX009 (ip), vehicle: saline with Tween-80",92 % of control
same,T/C,"dose: 50.0 mg/kg/injection, schedule: Q01DX009 (ip), vehicle: saline with Tween-80",93 % of control
same,T/C,"dose: 100.0 mg/kg/injection, schedule: Q01DX009 (ip), vehicle: saline with Tween-80",93 % of control and 87 % of control
same,T/C,[10],98 % of control
same,T/C,[11],95 % of control
same,T/C,[12],95 % of control
OCCCCCCCCCCCC[n+]1ccccc1,T/C,"dose: 87.5 mg/kg/injection, schedule: Q01DX001 (ip), vehicle: saline",105 % of control
Cc1ccc(S(=O)(=O)N2CCC(Br)(Br)C(=O)c3ccccc32)cc1,T/C,"dose: 100.0 mg/kg/injection, schedule: Q01DX009 (ip), vehicle: saline",97 % of control
same,T/C,"dose: 200.0 mg/kg/injection, schedule: Q01DX009 (ip), vehicle: saline",100 % of control
same,T/C,"dose: 400.0 mg/kg/injection, schedule: Q01DX009 (ip), vehicle: saline",102 % of control
COC(=O)c1cc2c(cc1N=Cc1ccccc1Cl)OCO2,T/C,"dose: 75.0 mg/kg/injection, schedule: Q04DX003 (ip), vehicle: Klucel (hydroxypropylcellulose) (HPC)",101 % of control
same,T/C,[13],97 % of control
same,T/C,"dose: 150.0 mg/kg/injection, schedule: Q04DX003 (ip), vehicle: Klucel (hydroxypropylcellulose) (HPC)",98 % of control
same,T/C,[14],95 % of control
same,T/C,"dose: 300.0 mg/kg/injection, schedule: Q04DX003 (ip), vehicle: Klucel (hydroxypropylcellulose) (HPC)",97 % of control
same,T/C,[15],95 % of control
C(=C\c1ccc(C2=NCCN2)cc1)/c1ccc(C2=NCCN2)cc1,T/C,"dose: 11.5 mg/kg/injection, schedule: Q01DX Z (ip), vehicle: carboxymethylcellulose (CMC)",115 % of control
same,T/C,"dose: 23.0 mg/kg/injection, schedule: Q01DX Z (ip), vehicle: carboxymethylcellulose (CMC)",119 % of control
same,T/C,"dose: 46.0 mg/kg/injection, schedule: Q01DX Z (ip), vehicle: carboxymethylcellulose (CMC)",150 % of control
same,T/C,"dose: 62.0 mg/kg/injection, schedule: Q01DX Z (oral), vehicle: carboxymethylcellulose (CMC)",103 % of control
same,T/C,"dose: 125.0 mg/kg/injection, schedule: Q01DX Z (oral), vehicle: carboxymethylcellulose (CMC)",108 % of control
same,T/C,"dose: 250.0 mg/kg/injection, schedule: Q01DX Z (oral), vehicle: carboxymethylcellulose (CMC)",104 % of control
same,T/C,"dose: 500.0 mg/kg/injection, schedule: Q01DX Z (oral), vehicle: carboxymethylcellulose (CMC)",101 % of control
CN1C2CCC(O)C1CC2 (centres undefined),T/C,"dose: 100.0 mg/kg/injection, schedule: Q01DX001 (ip), vehicle: saline",102 % of control
same,T/C,"dose: 200.0 mg/kg/injection, schedule: Q01DX001 (ip), vehicle: saline",102 % of control
Cc1cc(C)cc(Cc2ccc3ccccc3c2)c1,T/C,"dose: 50.0 mg/kg/injection, schedule: Q01DX001 (ip), vehicle: Klucel (hydroxypropylcellulose) (HPC)",109 % of control
same,T/C,[13],98 % of control
same,T/C,[14],96 % of control
same,T/C,[15],90 % of control
O=C1O/C(=C/c2ccccc2)C(O)=C1c1ccccc1,T/C,[1],93 % of control
same,T/C,[2],103 % of control
Cc1nc2ccc(O)cc2cc1CBr,T/C,"dose: 6.25 mg/kg/injection, schedule: Q01DX009 (ip), vehicle: saline",112 % of control
same,T/C,"dose: 12.5 mg/kg/injection, schedule: Q01DX009 (ip), vehicle: saline",104 % of control
same,T/C,"dose: 12.5 mg/kg/injection, schedule: Q04DX003 (ip), vehicle: saline",107 % of control
same,T/C,"dose: 25.0 mg/kg/injection, schedule: Q01DX009 (ip), vehicle: saline",106 % of control
same,T/C,"dose: 25.0 mg/kg/injection, schedule: Q04DX003 (ip), vehicle: saline",115 % of control
same,T/C,"dose: 50.0 mg/kg/injection, schedule: Q04DX003 (ip), vehicle: saline",97 % of control
O=[N+]([O-])c1ccccc1CN1CCCCC1,T/C,"dose: 5.0 mg/kg/injection, schedule: Q01DX001 (ip), vehicle: saline",102 % of control
same,T/C,"dose: 10.0 mg/kg/injection, schedule: Q01DX001 (ip), vehicle: saline",102 % of control
same,T/C,"dose: 20.0 mg/kg/injection, schedule: Q01DX001 (ip), vehicle: saline",102 % of control
COC(C/C=C\C=C\CC/C=C/CC(C)/C=C/C(=C\C(=O)O)CC(=O)O)/C(C)=C\C=C(/C)C(=O)O (centres undefined),T/C,"dose: 0.5 mg/kg/injection, schedule: Q01DX001 (ip), vehicle: saline",101 % of control
same,T/C,"dose: 1.0 mg/kg/injection, schedule: Q01DX001 (ip), vehicle: saline",102 % of control
same,T/C,"dose: 2.0 mg/kg/injection, schedule: Q01DX001 (ip), vehicle: saline",102 % of control
same,T/C,"dose: 4.0 mg/kg/injection, schedule: Q01DX001 (ip), vehicle: saline",104 % of control
same,T/C,"dose: 8.0 mg/kg/injection, schedule: Q01DX001 (ip), vehicle: saline",101 % of control
S=C=Nc1cccc(N=C=S)c1,T/C,"dose: 5.0 mg/kg/injection, schedule: Q01DX001 (ip), vehicle: acetone",105 % of control
same,T/C,"dose: 10.0 mg/kg/injection, schedule: Q01DX001 (ip), vehicle: acetone",124 % of control
same,T/C,"dose: 20.0 mg/kg/injection, schedule: Q01DX001 (ip), vehicle: acetone",100 % of control
CCCCCCCC(=O)NN,T/C,"dose: 25.0 mg/kg/injection, schedule: Q01DX009 (ip), vehicle: other",104 % of control
same,T/C,"dose: 50.0 mg/kg/injection, schedule: Q01DX009 (ip), vehicle: carboxymethylcellulose (CMC)",89 % of control
same,T/C,"dose: 50.0 mg/kg/injection, schedule: Q01DX009 (ip), vehicle: other",93 % of control
same,T/C,[4],117 % of control
same,T/C,"dose: 100.0 mg/kg/injection, schedule: Q01DX009 (ip), vehicle: carboxymethylcellulose (CMC)",86 % of control
same,T/C,"dose: 100.0 mg/kg/injection, schedule: Q01DX009 (ip), vehicle: other",98 % of control
same,T/C,[5],97 % of control
same,T/C,"dose: 200.0 mg/kg/injection, schedule: Q01DX009 (ip), vehicle: other",107 % of control
same,T/C,[6],95 % of control
same,T/C,"dose: 400.0 mg/kg/injection, schedule: Q01DX009 (ip), vehicle: other",98 % of control
CC(=O)C(C(=N)C#N)C(=O)Nc1ccccc1 (centres undefined),T/C,[10],101 % of control
same,T/C,[11],104 % of control
same,T/C,[12],101 % of control
CC(C)CCCC(C)C1CCC2C3CC=C4CC(O[N+](=O)[O-])CCC4(C)C3CCC12C (centres undefined),T/C,[1],102 % of control
same,T/C,[2],112 % of control
same,T/C,[3],102 % of control
Clc1ccc2c(c1)/C(=C/c1cccnc1)c1cc(Cl)cc(Cl)c1-2,T/C,"dose: 100.0 mg/kg/injection, schedule: Q01DX009 (ip), vehicle: Klucel (hydroxypropylcellulose) (HPC)",93 % of control
same,T/C,[7],88 % of control
same,T/C,[14],94 % of control
same,T/C,"dose: 200.0 mg/kg/injection, schedule: Q01DX009 (ip), vehicle: Klucel (hydroxypropylcellulose) (HPC)",90 % of control
same,T/C,[8],95 % of control
same,T/C,[15],90 % of control
same,T/C,[9],88 % of control
